US8697694B2, “Substituted pyridine and pyrimidine derivatives and their use in treating viral infections” (priority 2008, dated 2014)

System: HCV replicon cells
Experiment: Cell-based HCV replicon assay (replicon RNA level by real time PCR, Taqman)
Conditions: Hepatitis C virus, 72 h, HCV replicon cells, harvested day 3, replicon RNA by real time PCR; given as number; read-out: EC90 (μM) range
Procedure, shortened: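 HCV replicon cells treated 3 days with 10 serial 2-fold compound dilutions (top 25 μM to 1 μM; 0.5% DMSO, 10% FBS). Replicon RNA quantified by multiplex Taqman RT-PCR (NS5B amplicon, GAPDH control); EC50 and EC90 = concentrations giving ΔCT of 1 and 3.2 over baseline.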

Row | SMILES | EC90
1 | CCOc1cc2cc(-c3c(C)nc(NC(C)(C)CC)nc3N[C@@H]3C[C@H](CO)[C@@H](O)[C@H]3O)oc2c(C)n1 [Example 26] | 0.5 µM
2 | CCOc1cc2cc(-c3c(C)nc(NCC(F)(F)F)nc3N[C@@H]3C[C@H](CO)[C@@H](O)[C@H]3O)oc2c(C)n1 [Example 29] | 0.1 µM

Same assay, conditions: Hepatitis C virus, 72 h, HCV replicon cells, harvested day 3, replicon RNA by real time PCR; reported as range class; read-out: EC90 (μM) range

Row | SMILES | EC90
3 | Nc1nc(Cl)c(-c2nc3c(F)cc(F)cc3s2)c(N[C@@H]2C[C@H](CO)[C@@H](O)[C@H]2O)n1 [Example 189] | 0.5 to 5 µM

Same assay, conditions: Hepatitis C virus, 72 h, HCV replicon cells, harvested on day 3, replicon RNA by real time PCR; calculated EC90 reported as range class; read-out: EC90 (μM) range

Row | SMILES | EC90
4 | CCc1cc2cc(-c3c(C)nc(NCc4nccs4)nc3N[C@@H]3C[C@H](CO)[C@H]4OC(C)(C)O[C@H]43)oc2cn1 [Example 341] | < 0.5 µM
5 | Cc1nc(NCc2cccnc2)nc(N[C@@H]2C[C@H](CO)[C@H]3OC(C)(C)O[C@H]32)c1-c1nc2ccccc2s1 [Example 463] | < 0.5 µM
6 | COc1cc(CNc2nc(C)c(-c3cc4cc(OC)nc(C)c4o3)c(N[C@@H]3C[C@H](CO)[C@H]4OC(C)(C)O[C@H]43)n2)cc(OC)c1 [Example 347] | < 0.5 µM
7 | COc1cc2cc(-c3c(C)nc(NCc4ccccn4)nc3N[C@@H]3C[C@H](CO)[C@H]4OC(C)(C)O[C@H]43)oc2c(C)n1 [Example 349] | 0.5 to 5 µM
8 | Cc1nc(NC(CF)CF)nc(N[C@@H]2C[C@H](CO)[C@H]3OC(C)(C)O[C@H]32)c1-c1nc2ccccc2s1 [Example 136] | 0.5 to 5 µM
9 | Cc1nc(NCC(F)(F)F)nc(N[C@@H]2C[C@H](CO)[C@H]3OC(C)(C)O[C@H]32)c1-c1cc2cc(C(F)(F)F)ncc2o1 [Example 140] | 0.5 to 5 µM
10 | Cc1nc(NCC2CC2)nc(N[C@@H]2C[C@H](CO)[C@H]3OC(C)(C)O[C@H]32)c1-c1cc2cc(C(F)(F)F)ncc2o1 [Example 141] | 0.5 to 5 µM
11 | OC[C@H]1C[C@@H](Nc2nc(NCc3ccccc3F)nc(Cl)c2-c2nc3ccccc3s2)[C@H](O)[C@@H]1O [Example 232] | < 0.5 µM

Same assay, conditions: Hepatitis C virus, 72 h, HCV replicon cells, replicon RNA level by real time PCR (Taqman), harvested on day 3; calculated EC90 reported as range class; read-out: EC90 (μM) range

Row | SMILES | EC90
12 | CCNc1nc(C)c(-c2nc3ccccc3s2)c(N[C@@H]2CC(C(C)(F)F)[C@@H](O)[C@H]2O)n1 (single isomer, unassigned) [Example 1074] | 0.5 to 5 µM
13 | COc1cccc2sc(-c3c(C)nc(NCC(F)(F)F)nc3N[C@@H]3C[C@H](CO)[C@@H](O)[C@H]3O)nc12 [Example 1070] | 0.5 to 5 µM
14 | Cc1nc(NC2CC2)nc(N[C@@H]2C[C@H](CO)[C@@H](O)[C@H]2O)c1-c1nc2cnccc2s1 [Example 534] | < 0.5 µM
15 | COC(=O)c1cccc(CNc2nc(C)c(-c3nc4ccccc4s3)c(N[C@@H]3C[C@H](CO)[C@@H](O)[C@H]3O)n2)c1 [Example 1218] | 0.5 to 5 µM
16 | Cc1nc(Nc2ccccc2OC(F)(F)F)nc(N[C@@H]2C[C@H](CO)[C@@H](O)[C@H]2O)c1-c1nc2ccccc2s1 [Example 1236] | > 5 µM
17 | COc1cnccc1Nc1nc(C)c(-c2nc3ccccc3s2)c(N[C@@H]2C[C@H](CO)[C@@H](O)[C@H]2O)n1 [Example 1131] | > 5 µM

Same assay, conditions: Hepatitis C virus, 72 h, HCV replicon cells, replicon RNA level by real time PCR, harvested day 3; read-out: EC90 (μM) range

Row | SMILES | EC90
18 | Cc1nc(NC2CC2)nc(N[C@@H]2CC[C@@H](O)[C@@]2(C)O)c1-c1nc2cnccc2s1 [Example 1820] | 0.5 to 5 µM
19 | Cc1nc(Nc2cccc3cccnc23)nc(N[C@@H]2C[C@H](CO)[C@@H](O)[C@H]2O)c1-c1nc2ccccc2s1 [Example 1620] | > 5 µM
20 | Cc1nc(NCc2ccc(F)cc2F)nc(N[C@@H]2CC[C@@H](O)[C@@]2(C)O)c1-c1nc2cnccc2s1 [Example 1821] | < 0.5 µM
21 | Cc1ccc([C@@H](C)Nc2nc(C)c(-c3nc4c(OCC5CC5)nccc4s3)c(N[C@@H]3C[C@H](CO)[C@@H](O)[C@H]3O)n2)cc1 [Example 1339] | < 0.5 µM
22 | Cc1nc(NCC(F)(F)F)nc(N[C@@H]2C[C@H](CO)[C@@H](O)[C@H]2O)c1-c1nc2ccccc2o1 [Example 1509] | < 0.5 µM
23 | Cc1nc(NCc2ccc3[nH]cnc3c2)nc(N[C@@H]2C[C@H](CO)[C@@H](O)[C@H]2O)c1-c1nc2ccccc2s1 [Example 1912] | < 0.5 µM
24 | Cc1nc(NCC(F)(F)F)nc(N[C@@H]2C[C@H](C(O)C(C)C)[C@@H](O)[C@H]2O)c1-c1nc2ccccc2s1 (stereo partly shown) [Example 1638] | 0.5 to 5 µM

Same assay, conditions: Hepatitis C virus, 72 h, read-out: EC90 (μM) range

Row | SMILES | EC90
25 | Cc1nc(C#N)nc(N[C@@H]2C[C@H](CO)[C@H]3OC(C)(C)O[C@H]32)c1-c1nc2ccccc2s1 [Example 1901] | > 5 µM
